“And” between values parts separate entries of the source, which are not always exact repeats. Identical values can stand only once. Like-named read-outs stand apart in the source and are kept apart here. Marks after values point to notes of the source that are not given here.
Key:
[1] = molecular target: T1, plasmin activity (Rattus norvegicus, UniProt Q01177); assay: Rat plasma plasmin (plasminogen) activity ex vivo after oral dosing; type: in vivo; conditions: rats treated orally at pharmacological doses
T1 construct: Plasma samples were collected via the abdominal aorta; from tissue; host or cells: Citrated plasma of orally dosed male Sprague Dawley rats
Method: Male Sprague Dawley rats (Charles River, average body weight 310 g, aged eight to nine weeks old) were housed in cages with a standard light cycle (12-h light, 12-h dark), at room temperature (22 ± 4 °C), with a relative humidity of 30–70%. Rats were identified by numbers on the cage cards. After arrival, rats were fed on a normal diet (Harlan Teklad diet 2014) and randomized to treatment groups (n = 5 per group) by baseline plasma plasminogen concentration and activity using a BRAT. LSN3441732 and LY3473329 were administered QD orally at three dose levels (3.7, 12.3 and 37 mg kg^−1; 3.2, 10.5 and 31.6 mg kg^−1 per dose, respectively) or vehicle (10 ml kg^−1, 1% HEC, 0.25% Tween-80, Antifoam) for four days. Terminal blood was drawn under general anaesthesia 24 h after the day-4 oral dose. Plasma samples were collected via the abdominal aorta into a premeasured anticoagulant BD Vacutainer used for blood collection (2.7 ml, buffered sodium citrate). The liver was flash frozen in liquid nitrogen. To measure plasminogen activity, 100 µl plasma per well was added to a 96-well plate (Corning) and the following were added to the indicated concentrations: 7.5 mM CaCl2 and 117 mM NaCl. Wells were mixed and warmed to 37 °C. Urokinase (Millipore) was added at 125 U per well and the plate was incubated at 37 °C for 4 min. The plasminogen substrate Chromogenix S-2251 (DiaPharma) was added to a concentration of 3.3 mM. The mixture was added and the plate was sealed and placed in a prewarmed plate reader, shaken, and the absorbance read every 30 s for 2 h. The maximum slope for each curve was determined and the percentage inhibition was calculated relative to untreated controls. Plasminogen protein was measured using ELISA kits for rat (Abcam ab157740) according to the manufacturer’s instructions. Plasminogen activity (percentage) and mass (µg ml^−1) in rat were analysed by ANOVA in JMP 16.1.0. The percentage reduction of plasminogen activity and mass for each treated group was compared with vehicle by Dunnett’s method.

[2] = Pharmacokinetics in monkey plasma after oral dosing; type: in vivo; conditions: cynomolgus; for Cmax / Tmax: day 14; for AUC(0-t): day 14, read-out: AUC(0–12 h)
[3] = system: Lp(a); assay: Lp(a) levels in cynomolgus monkeys; type: in vivo, cynomolgus monkey (Macaca fascicularis); design: key to Mean_pCFB_vs_Veh / Mean_pCFB_vs_Veh (Lp(a)): % change from pre-dose, treated group compared with vehicle; key to Mean_pCFB / Mean_pCFB (Lp(a)): % change in Lp(a) from before dosing; Lp(a): unit not given here; conditions: for Mean_pCFB / Mean_pCFB_vs_Veh: Lp(a); for Mean_pCFB / Mean_pCFB_vs_Veh / Lp(a) / pCFB (Lp(a) pct change from baseline): female cynomolgus monkeys
Method: Female or male Chinese Macaca fascicularis cynomolgus monkeys (as described in the figure legends) of unspecified ages with body weight ranging from 2.0 kg to 5.0 kg were housed in cages with a standard light cycle (12-h light, 12-h dark) at room temperature (20–26 °C); the relative humidity ranged from 30% to 70%. Monkeys were given fruits, vegetables or dietary enrichment as a form of environmental enrichment, and various cage enrichment devices. Purina Lab diet 5048C was provided BID and individual monkeys were identified by cage card. The monkeys were randomized to treatment groups by body weight and baseline plasma Lp(a) concentration, as determined by a commercially available Randox assay (Randox LP2757), using a BRAT for the study. In an example cynomolgus monkey study in which 39 monkeys were prescreened for baseline Lp(a) levels, the average Lp(a) level was 350 ± 57 µg ml^−1 (range 53–1,667 µg ml^−1). Monkeys were dosed orally with vehicle (purified water) or compounds QD or BID for 14 days, at dose levels and frequencies as previously described for each compound. Plasma samples were collected on days before dosing to establish baseline Lp(a) and after the morning dose during the study. Lp(a) levels were measured by an investigator who was blinded to group allocation using the Randox assay, and were quantified relative to the calibrator series (Randox LP3404). Data were analysed in GraphPad Prism v.9.5.1. The Lp(a) percentage change from before dosing in non-human primates was analysed by repeated measures ANOVA in SAS v.9.4 (SAS). At each time point, the Lp(a) percentage change for each treated group was compared with vehicle by the Bonferroni method.

[4] = oral BID, day 1, individual animal
[5] = oral BID, day 3, individual animal
[6] = oral BID, day 5, individual animal
[7] = oral BID, day 9, individual animal
[8] = oral BID, day 14, individual animal
[9] = oral QD, day 1, individual animal
[10] = oral QD, day 3, individual animal
[11] = oral QD, day 5, individual animal
[12] = oral QD, day 9, individual animal
[13] = oral QD, day 14, individual animal

T1 sequence (Q01177 20-812 limits assumed): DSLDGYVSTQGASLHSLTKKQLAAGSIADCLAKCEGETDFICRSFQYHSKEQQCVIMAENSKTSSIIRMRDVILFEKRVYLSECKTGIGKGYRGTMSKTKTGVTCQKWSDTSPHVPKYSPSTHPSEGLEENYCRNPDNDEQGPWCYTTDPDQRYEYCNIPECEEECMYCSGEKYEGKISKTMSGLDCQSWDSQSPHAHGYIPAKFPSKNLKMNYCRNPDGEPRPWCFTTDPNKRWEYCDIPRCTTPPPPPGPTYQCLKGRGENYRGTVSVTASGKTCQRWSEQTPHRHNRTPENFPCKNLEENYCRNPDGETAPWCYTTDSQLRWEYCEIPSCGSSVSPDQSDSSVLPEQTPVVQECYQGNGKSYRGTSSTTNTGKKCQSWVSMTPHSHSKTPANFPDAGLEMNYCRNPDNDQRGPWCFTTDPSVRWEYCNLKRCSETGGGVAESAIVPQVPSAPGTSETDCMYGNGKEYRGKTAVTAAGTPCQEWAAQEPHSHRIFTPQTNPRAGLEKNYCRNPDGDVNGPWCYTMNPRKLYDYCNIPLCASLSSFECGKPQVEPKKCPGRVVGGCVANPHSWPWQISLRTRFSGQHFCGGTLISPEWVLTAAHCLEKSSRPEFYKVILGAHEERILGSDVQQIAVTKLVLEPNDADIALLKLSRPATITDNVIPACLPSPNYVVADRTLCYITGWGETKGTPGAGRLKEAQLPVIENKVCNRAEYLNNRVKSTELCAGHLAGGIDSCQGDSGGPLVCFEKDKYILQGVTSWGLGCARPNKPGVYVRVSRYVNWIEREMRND

Cl.O=C(O)[C@@H](Cc1ccccc1)[C@H]1CCNC1 [LSN3353871]
plasma plasmin activity measured ex vivo [1]: no inhibitory action
Cmax ([2]; oral 20 mg/kg): 22.3 µM
Tmax ([2]; oral 20 mg/kg): 1.5 ± 0.5 h
AUC(0-t) ([2]; oral 20 mg/kg): 136 µM·h
Cmax ([2]; oral 40 mg/kg): 29.6 µM
Tmax ([2]; oral 40 mg/kg): 1.5 ± 0.5 h
AUC(0-t) ([2]; oral 40 mg/kg): 210 µM·h
Mean_pCFB ([3]; BID, day 1): -17.16
Mean_pCFB_vs_Veh ([3]; BID, day 1): 1.08
Mean_pCFB ([3]; BID, day 3): -35.64
Mean_pCFB_vs_Veh ([3]; BID, day 3): -13.27
Mean_pCFB ([3]; BID, day 5): -39.65
Mean_pCFB_vs_Veh ([3]; BID, day 5): -25.29
Mean_pCFB ([3]; BID, day 9): -24.57
Mean_pCFB_vs_Veh ([3]; BID, day 9): -29.9
Mean_pCFB ([3]; BID, day 14): -34.78
Mean_pCFB_vs_Veh ([3]; BID, day 14): -34.93
Mean_pCFB ([3]; QD, day 1): -15.58
Mean_pCFB_vs_Veh ([3]; QD, day 1): 2.65
Mean_pCFB ([3]; QD, day 3): -24.41
Mean_pCFB_vs_Veh ([3]; QD, day 3): -2.03
Mean_pCFB ([3]; QD, day 5): -27.62
Mean_pCFB_vs_Veh ([3]; QD, day 5): -13.26
Mean_pCFB ([3]; QD, day 9): -15.91
Mean_pCFB_vs_Veh ([3]; QD, day 9): -21.23
Mean_pCFB ([3]; QD, day 14): -9.51
Mean_pCFB_vs_Veh ([3]; QD, day 14): -9.65
decrease in Lp(a) levels ([3]; cynomolgus monkeys, 20 mg kg^−1 BID for two weeks): up to 40%
%Lp(a) max decrease (dose, mg/kg) ([3]; cynomolgus monkeys, 20 mg/kg BID, 14 days dosing): 40 (20)^b %
Lp(a) ([3]; BID group, day -1 (before dosing), individual animal): 62.7685 and 48.163 and 60.7172 and 13.635 and 18.9902 and 51.942 and 61.5505 and 31.6327
Lp(a) ([3]; BID group, day -14 (before dosing), individual animal): 63.283 and 50.674 and 55.2892 and 13.5483 and 15.2575 and 51.2555 and 54.086 and 23.9562
Lp(a) ([3]; QD group, day -1 (before dosing), individual animal): 64.272 and 49.5175 and 60.6415 and 25.2005
Lp(a) ([3]; QD group, day -14 (before dosing), individual animal): 61.406 and 37.9278 and 38.7218 and 35.5823
Lp(a) [3, 4]: 52.535 and 44.0168 and 46.6457 and 12.9142 and 11.7935 and 42.9437 and 23.7942 and 44.7918
pCFB (Lp(a) pct change from baseline) [3, 4]: -10.9306 and -19.5807 and -4.985 and -31.1282 and -18.9955 and -14.3923 and -20.5861 and -16.6452
Lp(a) [3, 5]: 45.0043 and 39.4997 and 31.6748 and 8.965 and 6.9825 and 34.2685 and 20.4107 and 36.1685
pCFB (Lp(a) pct change from baseline) [3, 5]: -20.0709 and -45.3913 and -34.0392 and -59.2235 and -35.3595 and -26.5656 and -35.8749 and -28.5937
Lp(a) [3, 6]: 38.5745 and 31.448 and 28.6503 and 10.7198 and 9.08 and 32.1393 and 18.0332
pCFB (Lp(a) pct change from baseline) [3, 6]: -38.7957 and -36.3639 and -50.6056 and -21.1294 and -46.9735 and -39.3758 and -35.1194 and -48.839
Lp(a) [3, 7]: 44.675 and 39.068 and 37.0712 and 13.4855 and 14.776 and 41.9348 and 17.9605
pCFB (Lp(a) pct change from baseline) [3, 7]: -29.1163 and -20.9446 and -36.0875 and -0.7811 and -13.7109 and -20.8987 and -35.3809 and -39.6451
Lp(a) [3, 8]: 55.7647 and 33.5363 and 40.4025 and 9.657 and 7.2775 and 34.1767 and 13.5137
pCFB (Lp(a) pct change from baseline) [3, 8]: -11.5208 and -32.1383 and -30.3443 and -28.9479 and -57.5008 and -35.5326 and -51.38 and -30.8982
Lp(a) [3, 9]: 48.1358 and 37.1353 and 55.4155 and 18.3242
pCFB (Lp(a) pct change from baseline) [3, 9]: 11.5412 and -39.7058 and -6.086 and -13.177 and -16.5026 and -22.2746 and -23.3982 and -15.0662
Lp(a) [3, 10]: 39.5063 and 29.6812 and 40.6228 and 20.1472
pCFB (Lp(a) pct change from baseline) [3, 10]: -18.2339 and -33.7073 and 11.9206 and -19.0783 and -28.1629 and -38.7431 and -37.1309 and -32.1149
Lp(a) [3, 11]: 37.3218 and 25.577 and 40.148 and 26.2523
pCFB (Lp(a) pct change from baseline) [3, 11]: -19.1894 and -13.6191 and -4.001 and -34.7759 and -8.718 and -58.5688 and -40.6072 and -41.5017
Lp(a) [3, 12]: 56.5955 and 31.4135 and 43.3325 and 24.1392
pCFB (Lp(a) pct change from baseline) [3, 12]: -12.7796 and -20.572 and 2.106 and -9.614 and -0.2146 and -48.0895 and -9.936 and -28.1528
Lp(a) [3, 13]: 39.3452 and 48.5785 and 37.4098 and 37.2848
pCFB (Lp(a) pct change from baseline) [3, 13]: -24.9526 and -29.9842 and 41.651 and -25.3919 and 24.0547 and -24.319 and -22.6937 and -14.4384
